Assay [1] concerns the target TEM-1, a Class A penicillinase (Escherichia coli, UniProt P62593). Kind of assay: beta-lactamase inhibition, relative IC50 analysis by nitrocefin hydrolysis (class A enzyme). The assay is classed as biochemical. Particulars: class A β-lactamase; 10 minute incubation of enzyme (2.56 nM) and inhibitor; nitrocefin substrate. How it is done: (§1) Representative compounds of formula (I) were evaluated as inhibitors of the Class C β-lactamase of Enterobacter cloacae P-99, a cephalosporinase, and TEM-1, a Class A penicillinase, by relative IC50 analysis. The IC50 value represents the concentration of inhibitor required to effect a 50% loss of activity of free enzyme. The IC50 value of each compound was determined as follows. Following a 10 minute incubation of a dilute solution of enzyme (2.56 nM) and inhibitor (<0.64 mM), a […] of this incubation mixture was then further diluted into 1 mL nitrocefin solution, and the rate of hydrolysis was measured during a 1 minute period by monitoring the absorbance of nitrocefin as a function of time.

Assay [2] has as its target Class C β-lactamase of Enterobacter cloacae P-99, a cephalosporinase (Enterobacter cloacae, UniProt P05364). In words: biochemical. The protocol: as §1
The mark [3] stands for this setting: class C β-lactamase, 10 minute incubation of enzyme (2.56 nM) and inhibitor, nitrocefin substrate, read-out: P99 (IC50, μm).

Read-outs that look alike come from different tables or passages of the source.

Class C β-lactamase of Enterobacter cloacae P-99, a cephalosporinase, sequence (P05364 21-381): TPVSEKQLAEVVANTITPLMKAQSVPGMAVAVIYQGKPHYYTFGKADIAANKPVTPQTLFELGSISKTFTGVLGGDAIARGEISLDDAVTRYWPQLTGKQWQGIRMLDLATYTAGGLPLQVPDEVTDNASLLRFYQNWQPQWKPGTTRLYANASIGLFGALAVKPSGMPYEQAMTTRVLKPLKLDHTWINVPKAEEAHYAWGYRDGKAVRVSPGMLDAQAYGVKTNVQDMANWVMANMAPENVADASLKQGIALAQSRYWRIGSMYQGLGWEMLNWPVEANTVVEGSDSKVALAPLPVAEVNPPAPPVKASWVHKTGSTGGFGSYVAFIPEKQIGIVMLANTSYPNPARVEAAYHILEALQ
TEM-1, a Class A penicillinase, sequence (P62593 24-286 limits assumed): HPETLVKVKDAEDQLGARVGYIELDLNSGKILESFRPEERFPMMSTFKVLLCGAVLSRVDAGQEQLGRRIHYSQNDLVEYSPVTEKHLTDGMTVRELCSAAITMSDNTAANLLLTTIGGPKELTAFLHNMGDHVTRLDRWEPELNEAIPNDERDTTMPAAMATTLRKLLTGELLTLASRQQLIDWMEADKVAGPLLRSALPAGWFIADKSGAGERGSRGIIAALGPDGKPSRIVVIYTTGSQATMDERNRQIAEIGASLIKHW

For `O=C(O)C1=C(Cl)CS(=O)(=O)C2C(=Cc3ccccn3)C(=O)N12` (centres unmarked) [Compound 7a, Sodium 3-chloro-1,1-dioxo-7-(2′-pyridylmethylidine)-3-cephem-4-carboxylate], the values for the IC50 in assay [1] and in assay [2] (setting [3]) were 1820 nM and 3 nM, respectively.

Turning to `O=C(O)C1=C(Br)CS(=O)(=O)C2C(=Cc3ccccn3)C(=O)N12` (centres unmarked) [Compound 7b, Sodium 3-bromo-1,1-dioxo-7-(2′-pyridylmethylidine)-3-cephem-4-carboxylate], the IC50 is 791 nM in assay [1] and 2.9 nM in assay [2].

Regarding `O=C(O)C1=C(I)CS(=O)(=O)C2C(=Cc3ccccn3)C(=O)N12` (centres unmarked) [Compound 7c, Sodium 1,1-dioxo-3-iodo-7-(2′-pyridylmethylidine)-3-cephem-4-carboxylate], the half-maximal inhibitory concentration (IC50) in assay [1] was 1280 nM; in assay [2], 4.7 nM.

`CSC1=C(C(=O)O)N2C(=O)C(=Cc3ccccn3)C2S(=O)(=O)C1` (centres unmarked) [Compound 9a, Sodium 1,1-dioxo-3-methylsulfanyl-7-(2′-pyridylmethylidine)-3-cephem-4-carboxylate]: the figures for the IC50 in assay [1] and in assay [2] were 1060 nM and 59 nM, respectively.

Regarding `O=C(O)C1=C(Sc2ccccc2)CS(=O)(=O)C2C(=Cc3ccccn3)C(=O)N12` (centres unmarked) [Compound 9b, Sodium 1,1-dioxo-3-phenylsulfanyl-7-(2′-pyridylmethylidine)-3-cephem-4-carboxylate], the half-maximal inhibitory concentration (IC50) is 12 nM in assay [1] and 21.7 nM in assay [2] (setting [3]).

For the molecule `O=C(O)C1=C(c2cccs2)CS(=O)(=O)C2C(=Cc3ccccn3)C(=O)N12` (centres unmarked) [Compound 9c, Sodium 1,1-dioxo-7-(2′-pyridylmethylidine)-3-(thiophen-2′-yl)-3-cephem-4-carboxylate], the half-maximal inhibitory concentration (IC50) in assay [1] worked out at 3540 nM; in assay [2], 43 nM.

As to `O=C(O)C1=C(c2ccccc2)CS(=O)(=O)C2C(=Cc3ccccn3)C(=O)N12` (centres unmarked) [Compound 9d, Sodium 1,1-dioxo-3-phenyl-7-(2′-pyridylmethylidine)-3-cephem-4-carboxylate], the IC50 in assay [1] is 9140 nM; in assay [2] (setting [3]), 38 nM.

In the case of `CS(=O)(=O)C1=C(C(=O)O)N2C(=O)C(=Cc3ccccn3)C2S(=O)(=O)C1` (centres unmarked) [Compound 11a, Sodium 1,1-dioxo-3-methylsulfonyl-7-(2′-pyridylmethylidine)-3-cephem-4-carboxylate], the half-maximal inhibitory concentration (IC50) was 7.6 nM in assay [1] and 90.7 nM in assay [2].

Take `O=C(O)C1=C(S(=O)(=O)c2ccccc2)CS(=O)(=O)C2C(=Cc3ccccn3)C(=O)N12` (centres unmarked) [Compound 11b, Sodium 1,1-dioxo-3-phenylsulfonyl-7-(2′-pyridylmethylidine)-3-cephem-4-carboxylate]: the results for the concentration for half-maximal inhibition (IC50) in assay [1] and in assay [2] were 9.4 nM and 174 nM, respectively.

`O=C(O)C1=C(F)CS(=O)(=O)C2C(=Cc3ccccn3)C(=O)N12` (centres unmarked) [Compound 14a, Sodium 1,1-dioxo-3-fluoro-7-(2′-pyridylmethylidine)-3-cephem-4-carboxylate]: the IC50 is 1840 nM in assay [1] and 11 nM in assay [2] (setting [3]).

Turning to `O=C(O)C1=CCS(=O)(=O)C2C(=Cc3ccccn3)C(=O)N12` (centres unmarked) [Compound 14b, Sodium 1,1-dioxo-7-(2 ′-pyridylmethylidine)-3-cephem-4-carboxylate], the half-maximal inhibitory concentration (IC50) in assay [1] stood at 18500 nM; in assay [2], 116 nM.

`O=C(C=CC1=C(C(=O)O)N2C(=O)C(=Cc3ccccn3)C2S(=O)(=O)C1)NC1CC1` (centres unmarked) [Compound 18a]: the half-maximal inhibitory concentration (IC50) in assay [1] was determined as 240 nM; in assay [2] (setting [3]), 824 nM.

`O=C(C=CC1=C(C(=O)O)N2C(=O)C(=Cc3ccccn3)C2S(=O)(=O)C1)NO` (centres unmarked) [Compound 18b, Sodium 3-(N-hydroxy-2′-carbamoylvinyl)-1,1-dioxo-7-(2″-pyridylmethylidine)-3-cephem-4-carboxylate]: the IC50 in assay [1] was determined as 7690 nM; in assay [2], 128 nM.

In the case of `NNC(=O)C=CC1=C(C(=O)O)N2C(=O)C(=Cc3ccccn3)C2S(=O)(=O)C1` (centres unmarked) [Compound 21a], the results for the IC50 in assay [1] and in assay [2] (setting [3]) were 390 nM and 1100 nM, respectively.

For the molecule `NCCCNC(=O)C=CC1=C(C(=O)O)N2C(=O)C(=Cc3ccccn3)C2S(=O)(=O)C1` (centres unmarked) [Compound 21b, Sodium 3-{[N-(3″-aminopropyl)-2′-carbamoyl]vinyl)}-1,1-dioxo-7-(2′″-pyridylmethylidine-3-cephem-4-carboxylate], the half-inhibitory concentration (IC50) in assay [1] was 1590 nM; in assay [2] (setting [3]), 4200 nM.

On to `CN1CCN(C(=O)C=CC2=C(C(=O)O)N3C(=O)C(=Cc4ccccn4)C3S(=O)(=O)C2)CC1` (centres unmarked) [Compound 21c, Sodium 3-[3 ′-(4″-methylpiperazin-1″-yl)-3′-oxopropenyl]-1,1-dioxo-7-(2′″-puridylmethylidine)-3-cephem-4-carboxylate], for which the figures for the IC50 in assay [1] and in assay [2] were 53 nM and 6340 nM, respectively.
